In patent publication US5605929A, “Methods and compositions for inhibiting 5α-reductase activity” (priority 1995, dated 1997):

Biological target: T1, 5α-Reductase of Rat Liver Microsomes (Rattus norvegicus, UniProt P24008)
T1 sequence (P24008 1-259): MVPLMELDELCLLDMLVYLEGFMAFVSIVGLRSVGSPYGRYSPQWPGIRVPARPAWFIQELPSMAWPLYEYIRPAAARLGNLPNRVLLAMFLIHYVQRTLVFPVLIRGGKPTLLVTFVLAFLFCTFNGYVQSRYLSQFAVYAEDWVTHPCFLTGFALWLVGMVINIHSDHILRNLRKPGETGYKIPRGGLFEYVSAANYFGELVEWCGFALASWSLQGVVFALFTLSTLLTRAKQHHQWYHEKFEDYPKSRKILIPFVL
Test: biochemical
Details: for inhibition at 5 µM: read-out: % Inhibition of [^3 H]4-MA binding, Table 2, 5 μM; for inhibition at 10 µM: read-out: % Inhibition of [^3 H]4-MA binding, Table 2, 10 μM; for inhibition at 40 µM: read-out: % Inhibition of [^3 H]4-MA binding, Table 2, 40 μM; for inhibition at 200 µM: read-out: % Inhibition of [^3 H]4-MA binding, Table 2, 200 μM

| Compound | IC50 [µM] | inhibition at 5 µM [%] | inhibition at 10 µM [%] | inhibition at 40 µM [%] | inhibition at 200 µM [%] |
| --- | --- | --- | --- | --- | --- |
| CCCCC/C=C\C/C=C\C/C=C\C/C=C\CCCCCC(=O)O | 46 | < 10 | < 10 | 41 | 79 |
| CCCCCCCC/C=C\CCCCCCCCCCC(=O)O | 154 | < 10 | 15 | 25 | 60 |
| CCCCCCCCC=CCC=CCC=CCCCC(=O)O [5,8,11-eicosatrienoic acid] | 50 |  |  |  |  |
| CCCCCCCCCCCCCC/C=C\CCCC(=O)O [5-Eicosenoic Acid, 5-eicosenoic acid] | > 200 | < 10 | < 10 | < 10 | < 10 |
| CCCCC/C=C\C/C=C\C/C=C\CCCCCCC(=O)O [8,11,14-cis-Eicosatrienoic Acid, 8,11,14-eicosatrienoic acid] | 15 | < 10 | 42 | 92 | 82 |
| CCCCCCCCCCC/C=C\CCCCCCC(=O)O [8-Eicosenoic Acid, 8-eicosenoic acid] | 48 | 14 | 41 | 52 | 81 |
| CCCCC/C=C\C/C=C\CCCCCCCCC(=O)O [10,13-Nonadecadienoic Acid, 10,13-nonadecadienoic acid] | 86 | < 10 | < 10 | 37 | 83 |
| CCCC/C=C\CCCCCCCCC(=O)O [10-Pentadecenoic Acid, 10-pentadecenoic acid] | 100 | < 10 | < 10 | < 10 | 71 |
| CCCCCC/C=C\CCCCCCCCC(=O)O [10-cis-Heptadecenoic Acid, 10-heptadecenoic acid] | 28 | < 10 | < 10 | 83 | 84 |
| CCCCCCCC/C=C\CCCCCCCCC(=O)O [10-cis-Nonadecenoic Acid, 10-nonadecenoic acid] | 130 | < 10 | < 10 | 13 | 79 |
| CCCCCC/C=C/CCCCCCCCC(=O)O [10-trans-Heptadecenoic Acid, 10-trans-heptadecenoicacid] | > 200 | < 10 | < 10 | < 10 | 40 |
| CCCCCCCC/C=C/CCCCCCCCC(=O)O [10-trans-Nonadecenoic Acid, 10-trans nonadecenoic acid] | > 200 | < 10 | < 10 | < 10 | 32 |
| CC/C=C\C/C=C\C/C=C\CCCCCCCCCC(=O)O [11,14,17-cis-Eicosatrienoic Acid, 11,14,17-eicosatrienoic acid] | 29 | < 10 | 1 | 78 | 94 |
| CC/C=C\C/C=C\C/C=C\CCCCCCCCCC(=O)Cl [11,14,17-cis-Eicosatrienoyl Chloride, 11,14,17-eicosatrienoyl chloride] | > 200 | < 10 | < 10 | < 10 | < 10 |
| CCCCC/C=C\C/C=C\CCCCCCCCCC(=O)OC [11,14-cis-Eicosadienoate, methyl 11,14 eicosadienoate] | > 200 | < 10 | < 10 | < 10 | < 10 |
